# Results: patent US6638948B1, “Amorphous paroxetine composition” (Pentech Pharmaceuticals, Inc., priority 1996, dated 2003)
# Tests used:
# [1] = Stability testing: specimen stored in a glass container with HDPE liner, opened and closed periodically, exposing it to atmospheric moisture; moisture and appearance noted; assay type: physicochemical
# Procedure: To a reaction flask containing 100 ml of absolute ethanol was added 13.9 g of paroxetine base. The flask was shaken until a clear solution was obtained. To this paroxetine solution, 10 ml of a solution of hydrochloric acid in absolute ethanol (22% v/v) was added dropwise. As the reaction proceeded to completion, the color of the solution changed from a yellow brown to a pink brown. The product was then vacuum dried in a rotary evaporator. A foamy, amorphous solid was obtained (lot # W951027). The produced amorphous solid was subjected to an additional 2.5 days of drying in a desiccator at reduced pressure. The solid, a free-flowing powder, was tested for composition by NMR and FTIR. The findings were consistent with published spectra for paroxetine. Silver nitrate testing of the solid indicated the presence of chloride in the sample. […] Residual moisture was determined by Karl-Fisher coulometric method at 0.7%. […] X-ray powder diffraction was performed using the powder pack method. The powder patterns were obtained using a Philips PW1710 automated diffractometer, with monochromatized CuKα, (Kα1=1.54060 Å; Kα2=1.54438 Å) radiation. The diffractometer was equipped with a compensating slit and a graphite monochromator. It was calibrated to 0.02° (2θ) using the quartz peak at 26.66θ° (2θ). The minimum peak/background ratio was 0.75. This spectrum is consistent with an amorphous solid form. The halo effect is clearly seen and the intensity is small. Differential scanning calorimetry was performed on the solid at two different heating rates.
# A specimen (0.5 g) was stored in a glass container with a HDPE liner for stability testing. The container was opened and closed periodically exposing the specimen to atmospheric moisture. Moisture determination was conducted at intervals of about 3 months.
# A solution of paroxetine hydrochloride in absolute ethanol (3.2 g/100 ml) was prepared as described in EXAMPLE 1. The solution was charged into a spray-drying machine (Yamato Chemical Co.) using a standard nozzle (0.1 mm orifice). The inlet temperature was set at 90 degrees Celsius and the outlet temperature at 60 degrees Celsius. The sample was spray dried to a fine, off-white powder (lot # W951026). Following recovery, the material was transferred to a vacuum desiccator and dried under partial vacuum for an additional 2.5 days. The resulting solid, a free-flowing powder, was tested for composition by NMR and FTIR. The findings were consistent with published spectra for paroxetine. Silver nitrate solution addition to an aqueous solution of the powder produced a white precipitate indicative of chloride. […] Residual moisture in the product was 0.8% measured by Karl-Fisher coulometric method. A sample was analyzed by HPLC and found to be free from related substances (purity>99%). This spectrum is consistent with an amorphous form. Differential scanning calorimetry was conducted on the solid.
# For stability testing a specimen (9 g) was stored in a glass container with a HDPE liner. The container was opened and closed periodically exposing the specimen to atmospheric moisture. Moisture determination was conducted at intervals of about 3 months.
# [2] = reported by Barnes et al. (U.S. Pat. No. 4,721,723); cited from earlier work
# [3] = 3 months storage, periodic exposure to atmospheric moisture
# [4] = 6 months storage, periodic exposure to atmospheric moisture
# [5] = Initial, Karl-Fisher coulometric method
Compound,"APPEARANCE [1, 3]","MOISTURE [1, 3]","APPEARANCE [1, 4]","MOISTURE [1, 4]",APPEARANCE ([1]; Initial),"MOISTURE [1, 5]",hygroscopicity [2]
"Cl.Fc1ccc([C@@H]2CCNC[C@H]2COc2ccc3c(c2)OCO3)cc1 [lot #W951027, (−)-trans4R-(4′-fluorophenyl)-3S-[(3′4′-methylenedioxy-phenoxy)methyl]-piperidine]",Free-flowing,1.8% w/w,Free-flowing,2.1% w/w,Free-flowing,0.7% w/w,
"Cl.Fc1ccc([C@@H]2CCNC[C@H]2COc2ccc3c(c2)OCO3)cc1 [lot #W951026, (−)-trans4R-(4′-fluorophenyl)-3S-[(3′4′-methylenedioxy-phenoxy)methyl]-piperidine]",Free-flowing,2.1% w/w,Free-flowing,2.2% w/w,Free-flowing,0.8% w/w,
"Cl.Fc1ccc([C@@H]2CCNC[C@H]2COc2ccc3c(c2)OCO3)cc1 [Amorphous paroxetine hydrochloride, (−)-trans4R-(4′-fluorophenyl)-3S-[(3′4′-methylenedioxy-phenoxy)methyl]-piperidine]",,,,,,,undesirably hygroscopic
